pEC50: −log10 of the molar value. In brackets after ≈: the same amount, converted by molar mass.
Columns and labels:
[1] = system: ALS-SOD1^H46R transgenic mice; test: In vivo drug efficacy test: vertical pole test (motor function); details: 21 weeks of age compared with 17 weeks of age, control significantly reduced
Experimental: (§1) In this test, ALS-SOD1^H46R transgenic mice carrying and expressing ALS1 pathological SOD1 gene (SOD1^H46R) were used. The mice were housed at 23° C. with a 12 hours light/dark cycle. […] Each compound was dissolved in sterilized water, and subsequently an administration solution was prepared with physiological saline. The dose of each compound was 0.01 mg, 0.1 mg and 1 mg/5 ml/kg per body weight of each individual and the compounds were orally administered once per day until an individual dies (compound-administered group). Mice to which physiological saline (5 ml/kg) alone was administered were used as a control group. As an evaluation method for expression of a neurological sign, a balance beam test (a stainless steel bar of 50 cm in length and 0.9 cm in width) was used.
(§2) Each of the mice was subjected to the test and grade 3 was determined as onset of disease. The motor function of the mice in the compound-administered groups and the control group was evaluated based on a vertical pole test and footprint analysis.
The vertical pole test (stainless steel bar of 50 cm in length and 0.9 cm in width was used) was started when the test mice became 17 weeks of age and carried out once a week. Each mouse was given five trials (noted that a maximum value was 45 cm, and when a mouse reached the vertical ascending distance of 45 cm, the trial was terminated at that point). The maximum value of the 5 trials was defined as motor function value.

[2] = Evaluation of blood-brain barrier permeability (concentration in brain after oral administration, HPLC); format: in vivo; details: male C57BL/6N mice, 100 mg/kg once orally, fasting
Experimental: For evaluation of blood-brain barrier permeability, pharmacokinetics (the concentration in brain) in mice was analyzed. In the test, male C57BL/6N mice (at 8 weeks of age) were used. Each compound was suspended in 0.5% sodium carboxymethylcellulose (CMC-Na). The dosage amount was 100 mg/kg per body weight of each mouse. Each compound was administered once orally under fasting conditions. At the time points of 30 minutes and one hour after administration, blood was collected from the heart of each mouse. Subsequently, perfusion was performed using physiological saline containing 10% heparin and thereafter the brain was removed. Serum was obtained by centrifuging the blood sample and brain was lyophilized with liquid nitrogen, both of which were stored at −80° C. until use.
Next, as a pre-treatment for HPLC analysis, deproteinization treatment was performed. Acetonitrile was added to the brain sample and homogenization treatment was performed to grind the brain. The resultant sample was centrifuged (10,000×g, 10 min, 4° C.) and the supernatant was collected, allowed to stand still at −80° C. for 10 minutes, thawed and then centrifuged again (10,000×g, 10 min, 4° C.). The obtained supernatant was dried under vacuum. The vacuum-dried sample was dissolved in a 10 mM phosphate buffer (pH7.0) containing 30-50% acetonitrile, allowed to stand still at −80° C. for 10 minute, thawed again and centrifuged at (10,000×g, 10 min, 4° C.) and the supernatant was collected. Furthermore, filtration treatment by a 0.45 μm filter and centrifugation (10,000×g, 4 min, 4° C.) were performed and subsequently filtration treatment by a 0.22 μm filter and centrifugation (10,000×g, 4 min, 4° C.) were performed. The supernatant was then collected and subjected to HPLC analysis. A standard curve was prepared by using the brain of the same type mouse to which none of the compounds was administered.
(§3) HPLC analysis conditions will be described below.
Column: CAPCELL PAK C18, 4.6 mm I.D.×150 mm (SHISEIDO)
Eluate: 10 mM phosphate buffer/acetonitrile (30-50%)
Dilution solution: 10 mM phosphate
buffer/acetonitrile (30-50%)

[3] = Evaluation of solubility in the 1st fluid (pH1.2) of the Japanese pharmacopeia; format: physicochemical; details: 1st fluid (pH 1.2) of the Japanese Pharmacopeia, pH 1.2, simulated gastric fluid, thermodynamic from solid, 25° C.
Experimental: Using the same compounds as in Experimental Example 1, solubility in the 1st fluid (pH1.2) of the Japanese pharmacopeia was measured. The 1st fluid of the Japanese Pharmacopeia was prepared by dissolving sodium chloride in hydrochloric acid (7.0 mL) and water and adjusting the total amount to 1000 mL. The 1st fluid of the Japanese Pharmacopeia (0.6 mL) was poured in a tube and a compound was added until a precipitate was observed. Then, the tube was shaken at 25° C. for 24 hours (200 rotations/minute) to obtain a compound solution. The compound solution was added to a 96-well plate to which a 0.22 μm filter (manufactured by Millipore) was set and centrifugally filtrated (2700 rotations/minute, 10 minutes). Thereafter, the concentration of the compound in the filtrate was obtained from the peak area obtained by HPLC analysis. The solution for a calibration curve was prepared by dissolving a compound in DMSO.
as §3
Column: TSKgel ODS-80Tm, 4.6×150 mm (manufactured by Tohso Corporation)
Column temperature: 40° C.
Mobile phase: 20 mM sodium 1-decanesulfonate, 40 mM phosphoric acid, 0.2% trimethylamine/acetonitrile

[4] = system: Human neuroblastoma SH-SY5Y cells; test: Oxidative stress-mediated cell death suppressive (AOSCD) activity in differentiated nerve cells, menadione, AlamarBlue; format: cell-based; details: RA-differentiated SH-SY5Y cells, compound 24 hours before menadione, 4 hours oxidative stress treatment, read-out: ED50 (the source's name)
Experimental: A test was performed by using the same compounds as in Test Example 1. Human neuroblastoma SH-SY5Y cells (ATCC, CRL2266 strain) were cultured in DMEM medium (manufactured by Wako Pure Chemical Industries Ltd.) containing 10% FBS, 100 μg/mL streptomycin and 100 U/mL penicillin G. SH-SY5Y cells were suspended in a DMEM/10% FBS medium, seeded in a cell density of 0.75×10^4 cells/well in a 96-well microplate and cultured in the presence of 5% CO2 at 37° C. for 24 hours. Thereafter, the medium was exchanged with DMEM/10% FBS (DMEM/FBS/RA) medium containing 10 μM all-trans-retinoic acid (RA). At the fifth day, each compound was added so as to obtain 2, 4, 6, 8, 10, 20, 30, 40, 50, 60, 80 μM (final concentration) and culture was performed. Note that, in this experiment, a sample in which DMSO alone was added was used as a negative control.
After 24 hours, an oxidative stress agent, menadione, was added so as to obtain a final concentration of 0, 30, 40, 60 and 80 μM and culture was continued in the presence of 5% CO2 at 37° C. (oxidative stress treatment) Cells treated with a 0.1% Triton X-100/DMEM/FBS/RA medium in place of menadione was used as a blank in this assay. After an oxidative stress treatment for 4 hours, the medium was replaced with a medium containing 10% AlamarBlue and culture was performed in the presence of 5% CO2 at 37° C. Twelve hours later, fluorescent was measured at an excitation wavelength of 530 nm/detection wavelength of 580 nm by use of CYTOFLUOR (registered trade mark) Multi-Well Plate Reader Series 4000 to quantify oxidative stress-mediated cell death suppressive (AOSCD) activity. In accordance with a conventional method, ED50 (Effective Dose) (μM) was calculated.

[5] = system: ALS-SOD1^H46R transgenic mice; test: In vivo drug efficacy test: footprint analysis (ambulation); details: 22 weeks of age compared with 18 weeks of age, control showed abnormal ambulation
Experimental: as §1, §2
Mice of the administered groups and the control group were subject to footprint analysis at 18 weeks and 22 weeks of age. Blue ink and red ink were applied respectively to the front and hind paws of the test mouse and the mouse was then allowed to walk on paper. From the footprint, irregularity of walking was observed. Data was analyzed by use of GraphPad Prism 5 and SPSS 17.0.

[6] = system: ALS-SOD1^H46R transgenic mice; test: In vivo drug efficacy test: survival period after the onset of disease; details: for survival period after the onset of disease: control 33.4±3.2 days; for survival benefit versus control group: 0.01, 0.1 and 1 mg/kg orally once per day from onset
Experimental: as §1, §2

[7] = 0.01 mg/kg orally once per day from onset
[8] = 0.1 mg/kg orally once per day from onset
[9] = 1 mg/kg orally once per day from onset

Row | Compound | motor function by vertical pole test [1, 7] | Amount of blood brain barrier permeation ([2]; 0.5 h after administration) [ng/100 μg] | Amount of blood brain barrier permeation ([2]; 1 h after administration) [ng/100 μg] | solubility at 24 h [3] [µg/mL] | pEC50 [4] | ambulation by footprint analysis [5, 7] | survival period after the onset of disease [6, 7] [days] | survival period after the onset of disease [6, 8] [days] | survival period after the onset of disease [6, 9] [days] | survival benefit versus control group [6] | motor function by vertical pole test [1, 8] | ambulation by footprint analysis [5, 8]
1 | Cc1cc(C)c(N(C)CC(=O)Nc2nc(-c3ccccn3)c[nH]2)c(C)c1 [Compound 14, 2-[mesityl(methyl)amino]-N-[4-(pyridin-2-yl)-1H-imidazol-2-yl]acetamide] | relatively retained | 519 | 370 | 3070 (≈ 8.79 mM) | 5.40 | no significant change of ambulation | 44.5 ± 3.4 | 42.2 ± 4.5 | 42.5 ± 2.9 | significant survival benefit | – | –
2 | Cc1cc(C)c(OCC(=O)Nc2nc(-c3ccccn3)c[nH]2)c(C)c1 [Compound (Ie), 2-(mesityloxy)-N-[4-(pyridin-2-yl)-1H-imidazol-2-yl]acetamide, reference compound] | – | 27 | 8 | 610 (≈ 1.81 mM) | 5.22 | – | – | – | – | – | – | –
3 | Cc1cc(C)c(O[C@H](C)C(=O)Nc2nc(-c3ccccn3)c[nH]2)c(C)c1 [Compound 10, (2R)-2-(mesityloxy)-N-[4-(pyridin-2-yl)-1H-imidazol-2-yl]propanamide] | – | 256 | 225 | 7880 (≈ 22.5 mM) | 5.10 | – | 43.7 ± 7.5 | 47.7 ± 6.9 | 41.8 ± 10.5 | significant survival benefit | relatively retained | no significant change of ambulation
4 | Cc1cc(C)c(NCC(=O)Nc2nc(-c3ccccn3)c[nH]2)c(C)c1 [Compound 22, 2-(mesitylamino)-N-(4-pyridin-2-yl-1H-imidazol-2-yl)acetamide] | – | 108 | 16 | 1810 (≈ 5.4 mM) | 4.68 | – | – | – | – | – | – | –
5 | Cc1cc(C)c(OC(C)(C)C(=O)Nc2nc(-c3ccccn3)c[nH]2)c(C)c1 [Compound 12, 2-(mesityloxy)-2-methyl-N-[4-(pyridin-2-yl)-1H-imidazol-2-yl]propanamide] | relatively retained | 258 | 133 | 3760 (≈ 10.3 mM) | 5.40 | no significant change of ambulation | 36.2 ± 4.0 | 38.8 ± 4.3 | 41.0 ± 7.9 | significant survival benefit | – | –
6 | Cc1cc(C)c(OCC(=O)Nc2nc(-c3ccccn3)cs2)c(C)c1 [Compound (X), 2-(mesityloxy)-N-(4-pyridin-2-yl-1,3-thiazol-2-yl)acetamide, reference compound] | – | 62 | 26 | 30 (≈ 0.0849 mM) | 4.70 | – | – | – | – | – | – | –
7 | Cc1cc(C)c(O[C@@H](C)C(=O)Nc2nc(-c3ccccn3)c[nH]2)c(C)c1 [Compound 11, (2S)-2-(mesityloxy)-N-[4-(pyridin-2-yl)-1H-imidazol-2-yl]propanamide] | – | 478 | 372 | 7980 (≈ 22.8 mM) | 5.40 | – | – | – | – | – | – | –

Source: patent US8975411B2, “Therapeutic agent for neurological diseases” (Neugen Pharma Inc., priority 2010, dated 2015)
